Assay [1] deals with T1, Adenosine receptor A3 (Homo sapiens) (UniProt P0DMS8).
T1 sequence (whole entry): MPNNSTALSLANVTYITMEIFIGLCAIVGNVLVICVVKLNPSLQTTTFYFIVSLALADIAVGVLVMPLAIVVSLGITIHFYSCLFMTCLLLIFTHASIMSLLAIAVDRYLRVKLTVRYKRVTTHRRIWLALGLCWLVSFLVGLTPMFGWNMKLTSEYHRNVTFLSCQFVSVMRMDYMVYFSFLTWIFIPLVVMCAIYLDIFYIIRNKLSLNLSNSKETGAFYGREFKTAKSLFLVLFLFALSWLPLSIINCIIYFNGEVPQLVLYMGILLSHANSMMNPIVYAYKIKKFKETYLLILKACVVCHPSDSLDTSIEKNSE
Kind of assay: Displacement of [3H]AB-MECA from human adenosine A3 receptor expressed in HEK293 cell membrane at 1 uM. It is filed as cell membranes. A general note: In a radioligand displacement assay an active substance lowers the binding of a labelled ligand.

A further assay deals with T2, Adenosine receptor A1 (Homo sapiens, UniProt P30542).
T2 sequence (P30542 whole entry): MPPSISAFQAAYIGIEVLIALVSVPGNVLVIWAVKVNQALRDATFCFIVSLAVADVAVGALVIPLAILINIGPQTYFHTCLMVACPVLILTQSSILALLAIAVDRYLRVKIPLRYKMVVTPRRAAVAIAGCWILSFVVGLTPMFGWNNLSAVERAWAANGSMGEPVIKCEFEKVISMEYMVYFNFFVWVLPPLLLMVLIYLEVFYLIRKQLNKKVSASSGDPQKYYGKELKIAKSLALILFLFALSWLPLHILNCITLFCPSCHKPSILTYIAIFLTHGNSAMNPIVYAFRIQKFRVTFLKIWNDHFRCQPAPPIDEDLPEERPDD
Kind of assay: biochemical.

Assay [2] has as its target T3, Adenosine receptor A2b (Homo sapiens) (UniProt P29275).
T3 sequence (whole entry): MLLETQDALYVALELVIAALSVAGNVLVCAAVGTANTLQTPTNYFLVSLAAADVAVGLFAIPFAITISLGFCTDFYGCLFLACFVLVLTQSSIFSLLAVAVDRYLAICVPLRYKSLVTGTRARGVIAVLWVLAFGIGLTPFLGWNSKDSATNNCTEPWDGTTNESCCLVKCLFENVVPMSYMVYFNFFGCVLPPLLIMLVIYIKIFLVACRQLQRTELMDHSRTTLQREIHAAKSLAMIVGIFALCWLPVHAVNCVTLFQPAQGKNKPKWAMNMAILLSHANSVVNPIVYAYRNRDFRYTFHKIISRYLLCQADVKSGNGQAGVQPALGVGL
The experiment in a line: Displacement of [3H]MRS1754 from human adenosine A2B receptor expressed in CHO cell membrane at 1 uM. It is filed as cell membranes.

Assay [3] deals with T4, Adenosine receptor A2a (Homo sapiens, UniProt P29274). Kind of assay: biochemical.
T4 sequence (P29274 whole entry): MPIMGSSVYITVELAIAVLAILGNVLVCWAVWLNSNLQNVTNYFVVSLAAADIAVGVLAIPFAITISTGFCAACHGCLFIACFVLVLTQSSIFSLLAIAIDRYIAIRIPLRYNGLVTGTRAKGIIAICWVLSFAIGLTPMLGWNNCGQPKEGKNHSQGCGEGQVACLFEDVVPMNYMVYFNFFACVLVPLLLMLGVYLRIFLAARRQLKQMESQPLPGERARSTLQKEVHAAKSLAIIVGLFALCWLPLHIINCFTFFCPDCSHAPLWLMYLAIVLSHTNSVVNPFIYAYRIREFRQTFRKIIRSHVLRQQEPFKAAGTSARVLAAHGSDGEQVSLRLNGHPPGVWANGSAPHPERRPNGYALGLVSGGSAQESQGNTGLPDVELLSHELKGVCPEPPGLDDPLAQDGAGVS
The target in assay [4] is T4, Adenosine receptor A2a. The experiment in a line: Displacement of [3H]ZM241385 from human adenosine A2A receptor expressed in HEK293 cell membrane at 1 uM. It is filed as cell membranes.
In assay [5] the target is T4, Adenosine receptor A2a.
Description: Binding affinity to human adenosine A2A receptor
The next assay has as its target T5, Adenosine receptor A2b (Homo sapiens, UniProt P29275).
T5 sequence (P29275 whole entry): T3 sequence (whole entry)
The experiment in a line: Displacement of [3H]MRS1754 from human adenosine A2B receptor expressed in CHO cell membrane. It is filed as cell membranes.

The target of assay [6] is T6, Adenosine receptor A1 (Homo sapiens) (UniProt P30542).
T6 sequence (whole entry): T2 sequence (P30542 whole entry)
Kind of assay: Displacement of [3H]DPCPX from human adenosine A1 receptor expressed in CHO cell membrane at 1 uM. It is filed as cell membranes.

A further assay deals with T7, Adenosine receptor A3 (Homo sapiens, UniProt P0DMS8).
T7 sequence (P0DMS8 whole entry): T1 sequence (whole entry)
The experiment in a line: biochemical.

Assay [7] concerns the target T4, Adenosine receptor A2a. The experiment in a line: Displacement of [3H]ZM241385 from human adenosine A2A receptor expressed in HEK293 cell membrane.

Molecules are shown by their SMILES.

With `N#Cc1c(-c2cccc(OC(F)(F)F)c2)cc(-c2ccccc2)nc1N`, the results for the Activity in assay [1] and in [2] were 28% and 7%, respectively. The Ki (usually a dissociation constant, usually derived from enzyme kinetics or from competition with a known ligand) was 34 nM at Adenosine receptor A1 and 58 nM on Adenosine receptor A2a [3].

Take `COc1ccc(-c2cc(-c3ccco3)nc(N)c2C#N)cc1`: the Activity in assay [1] was 21%; in assay [2], 33%.

Take `N#Cc1c(-c2ccc(O)cc2)cc(-c2ccccc2)nc1N`: the Activity on Adenosine receptor A2a [4] amounted to 17%; in assay [1], 18%; in assay [2] it was 18%. Also, at Adenosine receptor A1, the Ki worked out at 61 nM.

On to `Nc1nc(-c2ccco2)c2ncn(C(=O)NCc3ccccc3)c2n1`, for which the Ki at Adenosine receptor A2a [5] was 1.1 nM.

`N#Cc1c(-c2ccco2)cc(-c2ccccc2)nc1N` returned an Activity in assay [1] of 29%. The figures for the inhibition constant (Ki) on Adenosine receptor A1, on Adenosine receptor A2b and on Adenosine receptor A2a [3] were 5.8 nM, 220 nM and 19 nM, respectively.

Take `N#Cc1c(-c2cccs2)cc(-c2ccco2)nc1N`: the Activity in assay [1] came to 51%. Also, the Ki on Adenosine receptor A1 came out at 28 nM; on Adenosine receptor A2b, 75 nM; on Adenosine receptor A2a [3], 1.4 nM.

In turn, `N#Cc1c(-c2ccccc2)cc(-c2ccco2)nc1N` registered an Activity in assay [1] of 28%. Moreover, the results for the Ki at Adenosine receptor A1, on Adenosine receptor A2b and at Adenosine receptor A2a [3] were 28 nM, 170 nM and 11 nM, respectively.

Regarding `CN(C)c1ccc(-c2cc(-c3ccco3)nc(N)c2C#N)cc1`, the Activity on Adenosine receptor A2a [4] came out at 3.8%; in assay [1] it was 17%; in [6], 11%; in assay [2], 2%.

`N#Cc1c(-c2ccc(-c3ccccc3)cc2)cc(-c2ccco2)nc1N`: the Activity on Adenosine receptor A2a [4] turned out to be 0%; in assay [1], 4%; in assay [6], 0%; in assay [2], 17%.

In assay [1], `Cc1cccc(-c2cc(-c3ccco3)nc(N)c2C#N)c1` registered an Activity of 18%. Besides, the Ki at Adenosine receptor A1 came out at 64 nM; on Adenosine receptor A2b, 620 nM; on Adenosine receptor A2a [3], 140 nM.

At Adenosine receptor A2a [5], `Nc1nc2c(cnn2CCc2ccc(S(=O)(=O)N(CCO)CCO)cc2)c2nc(-c3ccco3)nn12` yielded an inhibition constant (Ki) of 0.12 nM.

In the case of `N#Cc1c(-c2ccc(O)cc2)cc(-c2ccco2)nc1N`, in assay [1], the Activity was 34%. Further, the Ki at Adenosine receptor A1 is 54 nM; at Adenosine receptor A2b, 370 nM; at Adenosine receptor A2a [3], 41 nM.

Take `CC(O)(C#Cc1cn2nc(-c3ccco3)nc2c(N)n1)Cc1ccncc1` (centres undefined): the Ki on Adenosine receptor A2a [5] was 1.1 nM.

As to `Cc1ccc(-c2cc(-c3ccco3)nc(N)c2C#N)o1`, the Activity in [1] is 24%. Also, the Ki turned out to be 100 nM at Adenosine receptor A1, 440 nM at Adenosine receptor A2b and 15 nM on Adenosine receptor A2a [3].

The molecule `OC[C@H]1O[C@@H](n2cnc3c(NC4CCCC4)ncnc32)[C@H](O)[C@@H]1O` [N6-CYCLOPENTYLADENOSINE] registered a Ki at Adenosine receptor A2a [3] of 1700 nM.

For the molecule `N#Cc1c(-c2ccccc2)cc(-c2ccccc2)nc1N`, the figures for the Activity in assay [1] and in [2] were 53% and 26%, respectively. Also, the Ki worked out at 14 nM at Adenosine receptor A1 and 130 nM on Adenosine receptor A2a [3].

For `N#Cc1c(-c2ccc3c(c2)OCO3)cc(-c2ccco2)nc1N`, the inhibition constant Ki on Adenosine receptor A3 was found to be 390 nM; at Adenosine receptor A1, 11 nM; at Adenosine receptor A2a [3], 26 nM. In addition, the Activity in [2] amounted to 24%.

Turning to `N#Cc1c(-c2cccs2)cc(-c2ccccc2)nc1N`, the Activity turned out to be 11% in [1] and 44% in assay [2]. The values for the Ki at Adenosine receptor A1 and at Adenosine receptor A2a [3] were 22 nM and 54 nM, respectively.

As to `CN(C)c1ccc(-c2cc(-c3ccccc3)nc(N)c2C#N)cc1`, the Activity on Adenosine receptor A2a [4] was found to be 1%; in assay [1] it was 2%; in assay [6], 12%; in assay [2] it was 4%.

Turning to `COc1ccc(-c2cc(-c3ccccc3)nc(N)c2C#N)cc1OC`, the Activity was 32% in assay [1] and 13% in assay [2]. In addition, the inhibitory constant (Ki) at Adenosine receptor A1 was determined as 66 nM; at Adenosine receptor A2a [3], 160 nM.

For `Nc1nc(CN[C@H]2CCCN2Cc2ccnc(Cl)c2)nc2nc(-c3ccco3)nn12`, the inhibitory constant (Ki) on Adenosine receptor A2a [5] was 4 nM.

`Nc1nc(N2CCN3C[C@@H](COc4cccc(F)c4)CC[C@H]3C2)nc2nc(-c3ccco3)nn12` returned an inhibitory constant (Ki) on Adenosine receptor A2a [5] of 0.2 nM.

For the molecule `N#Cc1c(-c2ccc(Cl)cc2)cc(-c2ccco2)nc1N`, the Activity in [1] is 21%; in [2], 33%. Further, the figures for the inhibitory constant (Ki) on Adenosine receptor A1 and at Adenosine receptor A2a [3] were 48 nM and 140 nM, respectively.

Turning to `N#Cc1c(-c2ccc(Cl)c(Cl)c2)cc(-c2ccco2)nc1N`, the figures for the Activity in [1] and in assay [2] were 14% and 12%, respectively. The Ki turned out to be 68 nM on Adenosine receptor A1 and 190 nM on Adenosine receptor A2a [3].

Turning to `N#Cc1c(-c2ccccc2)cc(-c2ccc[nH]2)nc1N`, the values for the Activity in assay [1], in assay [6] and in assay [2] were 0%, 28% and 35%, respectively. On Adenosine receptor A2a [3], this molecule gave an inhibition constant Ki of 640 nM.

Regarding `COc1ccc(-c2cc(-c3ccco3)nc(N)c2C#N)cc1OC`, the Activity was 20% in assay [1] and 31% in [2]. In addition, the Ki turned out to be 250 nM on Adenosine receptor A1 and 92 nM on Adenosine receptor A2a [3].

In the case of `N#Cc1c(-c2ccc3c(c2)OCO3)cc(-c2ccccc2)nc1N`, the figures for the Activity (on Adenosine receptor A2a [4]; in assay [1]; in assay [2]) were 34%, 48% and 0%, respectively. This molecule showed a Ki on Adenosine receptor A1 of 7 nM.

For `N#Cc1c(-c2cccs2)cc(-c2cccs2)nc1N`, the Activity in assay [1] came out at 31%; in assay [2] it was 19%. In addition, the values for the Ki on Adenosine receptor A1 and at Adenosine receptor A2a [3] were 43 nM and 32 nM, respectively.

`COc1ccccc1-c1cc2nc(-c3ccco3)nn2c(N)n1` yielded a Ki on Adenosine receptor A2a [5] of 4.3 nM.

For `N#Cc1c(-c2cccc(OC(F)(F)F)c2)cc(-c2ccco2)nc1N`, the Activity at Adenosine receptor A2a [7] is 260 nM; in assay [1] it was 13%; in assay [2], 29%. Also, the Ki on Adenosine receptor A1 stood at 270 nM.

Consider `N#Cc1c(-c2ccco2)cc(-c2ccco2)nc1N`, for which, in [1], the Activity worked out at 33%. Also, the Ki worked out at 12 nM on Adenosine receptor A1, 34 nM on Adenosine receptor A2b and 1 nM on Adenosine receptor A2a [3].

`CC(C)Oc1ccc(-c2cc(-c3ccco3)nc(N)c2C#N)cc1`: the Activity on Adenosine receptor A2a [4] is 6%; in assay [1], 7%; in [6], 19%; in assay [2], 8%.

Molecule `Nc1nc(C(=O)NCCc2ccc(O)cc2)cn2nc(-c3ccco3)nc12` returned an inhibition constant Ki at Adenosine receptor A2a [5] of 1 nM.

As to `CC(C)c1ccc2c(c1)-c1nc(N)nc(-c3ccc(Br)o3)c1C2`, the inhibition constant Ki on Adenosine receptor A2a [5] is 0.8 nM. This Ki and that of the molecule before are within 1.5-fold of each other.

For `N#Cc1c(-c2ccccc2)cc(-c2cccs2)nc1N`, the Activity in [1] amounted to 32%; in [2], 41%. In addition, the Ki was found to be 12 nM at Adenosine receptor A1 and 88 nM at Adenosine receptor A2a [3].

Consider `N#Cc1c(-c2ccco2)cc(-c2cccs2)nc1N`, for which the Activity in assay [1] was 39%. For the same molecule, the figures for the inhibition constant (Ki) at Adenosine receptor A1, on Adenosine receptor A2b and on Adenosine receptor A2a [3] were 29 nM, 380 nM and 12 nM, respectively.

For `Cc1ccc(-c2cc(-c3ccco3)nc(N)c2C#N)cc1`, the Activity amounted to 45% on Adenosine receptor A2a [4], 21% in [1], 47% in assay [6] and 15% in [2].

At Adenosine receptor A2a [5], `CC(C)(C)OC(=O)N1CCN(c2cccc(-c3cc4nc(-c5ccco5)nn4c(N)n3)c2)CC1` gave a Ki of 0.5 nM.

Regarding `Cc1cccc(-c2cc(-c3ccccc3)nc(N)c2C#N)c1`, the results for the Activity in [1] and in assay [2] were 33% and 37%, respectively. The Ki on Adenosine receptor A1 was 15 nM; at Adenosine receptor A2a [3], 130 nM.
